According to PMC8617031, “Development of a BCL-xL and BCL-2 dual degrader with improved anti-leukemic activity,” (Nature Communications, 2021):
Values joined by “and” are separate entries in the source; they are usually repeats but may differ in a detail not shown here. Equal values may be shown once.

Experiments:
BCL-xL = target: T1, BCL-xL (Homo sapiens, UniProt Q07817); test: BCL-xL degradation by immunoblot in 293T cells; assay type: cell-based; details: for DC50: 293T cells, four concentrations, 16 h, Fig. 2b, read-out: BCL-xL DC50; for Dmax: HEK-293T
T1 construct: endogenous in cells
In short: (§1)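 Immunoblot of 293T cell lysates (RIPA, 20–40 μg protein per lane) with β-actin as loading control and chemiluminescent detection. Bands quantified by densitometry and normalized; DC50 and Dmax derived from the quantified blots, n = 3 biologically independent experiments.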

BCL-2 = target: T2, BCL-2 (Homo sapiens, UniProt P10415); test: BCL-2 degradation by immunoblot in 293T cells; assay type: cell-based; details: for BCL-2 degradation (in words) / DC50: 293T cells, 16 h; for DC50: four concentrations, Fig. 2b, read-out: BCL-2 DC50; for Dmax: HEK-293T
T2 construct: endogenous in cells
In short: as §1

[1] = target: T3, BCL-xL/PROTAC/VHL-ELOC-ELOB (VCB) ternary complex (Homo sapiens, UniProt P40337+Q07817); test: AlphaLISA ternary complex formation, cell-free, BCL-xL; assay type: binding; details: for in vitro ternary complex formation with BCL-xL (in words): AlphaLISA, cell-free, Fig. 2c, 3e; for AlphaLISA signal, BCL-xL/PROTAC/VCB: Fig. 2c raw Alpha reads
T3 construct: pGEX-6P-1-VHL(54-213) (pDL2200) was constructed through Gibson assembly method; made in house; host or cells: bacterial culture (LB broth, IPTG induction)
In short: (§2)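 Cell-free AlphaLISA: 5 nM His-tagged BCL-xL or BCL-2 plus 5 nM GST-VCB incubated with fourfold serially diluted compound 30 min at room temperature. Glutathione donor and His acceptor beads (20 µg/ml each) then added for 15 and 45 min; AlphaLISA signal plotted against compound concentration.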

[2] = target: T4, BCL-2/PROTAC/VCB ternary complex (Homo sapiens, UniProt P10415+P40337); test: AlphaLISA ternary complex formation, cell-free, BCL-2; assay type: binding; details: for in vitro ternary complex formation with BCL-2 (in words): AlphaLISA, cell-free, Fig. 2d, 3f; for AlphaLISA signal, BCL-2/PROTAC/VCB: Fig. 2d raw Alpha reads
T4 construct: pGEX-6P-1-VHL(54-213) (pDL2200) was constructed through Gibson assembly method; made in house; host or cells: bacterial culture (LB broth, IPTG induction)
In short: as §2

[3] = compound 200000 nM, 2 technical replicates

T4 sequence (P10415 1-211 limits assumed): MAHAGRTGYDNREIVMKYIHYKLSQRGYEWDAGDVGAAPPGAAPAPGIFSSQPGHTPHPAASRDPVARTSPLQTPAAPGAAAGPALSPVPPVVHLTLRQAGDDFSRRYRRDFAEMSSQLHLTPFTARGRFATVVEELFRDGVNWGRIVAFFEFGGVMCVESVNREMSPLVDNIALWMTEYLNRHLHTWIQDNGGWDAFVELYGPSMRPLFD
T4 sequence (P40337 54-213 limits assumed): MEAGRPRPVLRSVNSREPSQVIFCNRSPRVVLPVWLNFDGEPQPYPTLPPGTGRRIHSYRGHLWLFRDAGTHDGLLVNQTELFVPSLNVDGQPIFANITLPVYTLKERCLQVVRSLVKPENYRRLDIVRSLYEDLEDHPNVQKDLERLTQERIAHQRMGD
T4 sequence (Q15369 17-112 partner limits assumed): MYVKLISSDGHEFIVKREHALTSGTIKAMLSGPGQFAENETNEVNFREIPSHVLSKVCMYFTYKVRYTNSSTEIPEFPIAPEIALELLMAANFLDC
T4 sequence (Q15370 whole entry partner): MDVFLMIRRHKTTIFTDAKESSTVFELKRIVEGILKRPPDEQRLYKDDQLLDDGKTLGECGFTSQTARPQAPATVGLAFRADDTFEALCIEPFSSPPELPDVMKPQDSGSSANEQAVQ
T3 sequence (Q07817 1-212 limits assumed): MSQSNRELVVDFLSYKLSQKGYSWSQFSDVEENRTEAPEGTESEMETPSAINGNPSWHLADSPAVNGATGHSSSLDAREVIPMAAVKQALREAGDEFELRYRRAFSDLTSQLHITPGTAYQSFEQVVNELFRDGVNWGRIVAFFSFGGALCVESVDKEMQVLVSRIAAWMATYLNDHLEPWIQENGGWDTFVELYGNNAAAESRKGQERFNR
T3 sequence (P40337 54-213 limits assumed): as the sequence (P40337 54-213 limits assumed) above
T3 sequence (Q15369 17-112 partner limits assumed): as the sequence (Q15369 17-112 partner limits assumed) above
T3 sequence (Q15370 whole entry partner): as the sequence (Q15370 whole entry partner) above
T2 sequence (P10415 whole entry): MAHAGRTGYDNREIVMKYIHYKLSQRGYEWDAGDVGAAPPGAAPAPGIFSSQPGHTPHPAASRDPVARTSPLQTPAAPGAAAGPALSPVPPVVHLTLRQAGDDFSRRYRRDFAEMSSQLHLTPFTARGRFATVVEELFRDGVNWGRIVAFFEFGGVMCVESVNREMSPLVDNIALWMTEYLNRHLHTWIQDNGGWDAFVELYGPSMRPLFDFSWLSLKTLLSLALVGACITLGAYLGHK
T1 sequence (Q07817 whole entry): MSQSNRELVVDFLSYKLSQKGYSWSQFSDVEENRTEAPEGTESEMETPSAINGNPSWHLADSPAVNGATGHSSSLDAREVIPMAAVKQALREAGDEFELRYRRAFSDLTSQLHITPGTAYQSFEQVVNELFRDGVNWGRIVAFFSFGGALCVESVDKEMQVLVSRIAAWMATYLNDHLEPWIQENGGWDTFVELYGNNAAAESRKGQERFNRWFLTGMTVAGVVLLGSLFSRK

Row | Structure (SMILES) | DC50 (BCL-xL) [nM] | Dmax (BCL-xL) [%] | BCL-2 degradation (in words) (BCL-2) | DC50 (BCL-2) [nM] | Dmax (BCL-2) [%] | in vitro ternary complex formation with BCL-xL (in words) [1] | AlphaLISA signal, BCL-xL/PROTAC/VCB ([1]; compound 0.191 nM) | AlphaLISA signal, BCL-xL/PROTAC/VCB ([1]; compound 0.763 nM) | AlphaLISA signal, BCL-xL/PROTAC/VCB ([1]; compound 3.052 nM) | AlphaLISA signal, BCL-xL/PROTAC/VCB ([1]; compound 12.207 nM) | AlphaLISA signal, BCL-xL/PROTAC/VCB ([1]; compound 48.828 nM) | AlphaLISA signal, BCL-xL/PROTAC/VCB ([1]; compound 195.31 nM) | AlphaLISA signal, BCL-xL/PROTAC/VCB ([1]; compound 781.25 nM) | AlphaLISA signal, BCL-xL/PROTAC/VCB ([1]; compound 3125 nM) | AlphaLISA signal, BCL-xL/PROTAC/VCB ([1]; compound 12500 nM) | AlphaLISA signal, BCL-xL/PROTAC/VCB ([1]; compound 50000 nM) | AlphaLISA signal, BCL-xL/PROTAC/VCB [1, 3] | in vitro ternary complex formation with BCL-2 (in words) [2] | AlphaLISA signal, BCL-2/PROTAC/VCB ([2]; compound 0.191 nM) | AlphaLISA signal, BCL-2/PROTAC/VCB ([2]; compound 0.763 nM) | also measured
1 | Cc1ncsc1-c1ccc([C@H](C)NC(=O)[C@@H]2C[C@@H](O)CN2C(=O)[C@@H](NC(=O)CCCCCCC(=O)N2CCN(CC3(C)CCC(c4ccc(Cl)cc4)=C(CN4CCN(c5ccc(C(=O)NS(=O)(=O)c6ccc(N[C@H](CCN7CCOCC7)CSc7ccccc7)c(S(=O)(=O)C(F)(F)F)c6)cc5)CC4)C3)CC2)C(C)(C)C)cc1 (stereo partly shown) [PPC8] | 12.9 | 94 | also degraded BCL-2 | 54 | 94 | stronger ternary complexes | 19077 and 19160 | 16314 and 16977 | 21818 and 20322 | 112726 and 99392 | 824374 and 896013 | 1441307 and 1441293 | 1280941 and 1272724 | 836346 and 758740 | 257313 and 288328 | 78225 and 86140 | 21117 and 20625 | stronger ternary complexes | 15495 and 15269 | 16981 and 16694 | AlphaLISA signal, BCL-2/PROTAC/VCB ([2]; compound 3.052 nM): 31764 and 30263; AlphaLISA signal, BCL-2/PROTAC/VCB ([2]; compound 12.207 nM): 220610 and 232235; AlphaLISA signal, BCL-2/PROTAC/VCB ([2]; compound 48.828 nM): 1164349 and 1304184; AlphaLISA signal, BCL-2/PROTAC/VCB ([2]; compound 195.31 nM): 1706795 and 1639825; AlphaLISA signal, BCL-2/PROTAC/VCB ([2]; compound 781.25 nM): 1791615 and 1848085; AlphaLISA signal, BCL-2/PROTAC/VCB ([2]; compound 3125 nM): 524010 and 562226; AlphaLISA signal, BCL-2/PROTAC/VCB ([2]; compound 12500 nM): 80335 and 78686; AlphaLISA signal, BCL-2/PROTAC/VCB ([2]; compound 50000 nM): 17935 and 18240; AlphaLISA signal, BCL-2/PROTAC/VCB [2, 3]: 8109 and 11043
2 | Cc1ncsc1-c1ccc([C@H](C)NC(=O)[C@@H]2C[C@@H](O)CN2C(=O)[C@@H](NC(=O)CCCCCCCC(=O)N2CCN(CC3(C)CCC(c4ccc(Cl)cc4)=C(CN4CCN(c5ccc(C(=O)NS(=O)(=O)c6ccc(N[C@H](CCN7CCOCC7)CSc7ccccc7)c(S(=O)(=O)C(F)(F)F)c6)cc5)CC4)C3)CC2)C(C)(C)C)cc1 (stereo partly shown) [PPC9] | 12.8 | 96 | also degraded BCL-2 | 316 | 79 | much weaker ternary complexes | 17022 and 14292 | 18582 and 21901 | 16005 and 18766 | 39343 and 38049 | 159552 and 171121 | 340009 and 336400 | 265891 and 255043 | 73854 and 131135 | 17390 and 24043 | 11384 and 10586 | 11935 and 10943 | much weaker ternary complexes | 13571 and 17652 | 17336 and 18248 | AlphaLISA signal, BCL-2/PROTAC/VCB ([2]; compound 3.052 nM): 22108 and 21304; AlphaLISA signal, BCL-2/PROTAC/VCB ([2]; compound 12.207 nM): 71357 and 62189; AlphaLISA signal, BCL-2/PROTAC/VCB ([2]; compound 48.828 nM): 336659 and 328291; AlphaLISA signal, BCL-2/PROTAC/VCB ([2]; compound 195.31 nM): 357647 and 419151; AlphaLISA signal, BCL-2/PROTAC/VCB ([2]; compound 781.25 nM): 267337 and 283839; AlphaLISA signal, BCL-2/PROTAC/VCB ([2]; compound 3125 nM): 78279 and 78565; AlphaLISA signal, BCL-2/PROTAC/VCB ([2]; compound 12500 nM): 15094 and 15494; AlphaLISA signal, BCL-2/PROTAC/VCB ([2]; compound 50000 nM): 7032 and 8982; AlphaLISA signal, BCL-2/PROTAC/VCB [2, 3]: 9255 and 9885
